Experimental data from BindingDB's records for doi:10.3109/14756366.2010.616860 (Slovak University of Technology, 2012).
Values joined by “and” are separate entries in the source; they are usually repeats but may differ in a detail not shown here. Equal entries are not always repeated. Blank lines part the entries; values can stand above or below the compound they belong to.

Experiments:
Test in all cases: Enzyme Assay
Details in all cases: pH 8
[1] = target: Urokinase-type plasminogen activator (Homo sapiens, UniProt P00749)
Procedure: (§1) Data scanning time was set to the 1st and 61st minute after the reaction start. Rutin, esculin, phloridzin and their esters were initially solubilized at a concentration of 10 mM in dimethyl sulphoxide (DMSO) and subsequently incorporated in the reaction mixture to final concentrations in the range of 1-50 μM. Samples were run in triplicate in 96-well plates by MRX microplate reader. Each experiment was performed in triplicate.

[2] = target: T1, Serine protease 1 (Bos taurus, UniProt P00760)
T1 sequence (P00760 whole entry): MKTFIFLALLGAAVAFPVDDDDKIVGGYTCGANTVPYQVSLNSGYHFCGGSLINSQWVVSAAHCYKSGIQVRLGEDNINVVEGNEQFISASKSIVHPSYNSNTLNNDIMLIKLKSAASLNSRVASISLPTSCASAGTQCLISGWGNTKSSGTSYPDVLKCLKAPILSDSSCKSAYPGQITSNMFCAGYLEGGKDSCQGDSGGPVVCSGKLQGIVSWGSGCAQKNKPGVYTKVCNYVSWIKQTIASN
Procedure: as §1

[3] = target: Prothrombin (Bos taurus, UniProt P00735)
Procedure: as §1

[4] = target: Chymotrypsin-like elastase family member 1 (Pig, UniProt P00772)
Procedure: as §1

Sequence of Chymotrypsin-like elastase family member 1 (P00772 whole entry): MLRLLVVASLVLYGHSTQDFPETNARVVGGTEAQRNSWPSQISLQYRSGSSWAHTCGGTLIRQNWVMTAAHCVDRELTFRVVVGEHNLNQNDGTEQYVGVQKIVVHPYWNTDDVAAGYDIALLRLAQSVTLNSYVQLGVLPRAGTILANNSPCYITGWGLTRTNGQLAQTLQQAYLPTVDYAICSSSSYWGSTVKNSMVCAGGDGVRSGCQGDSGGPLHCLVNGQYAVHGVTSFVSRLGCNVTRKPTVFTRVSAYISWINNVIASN

IC50 [1]: 25 µM
IC50 [2]: 60 µM
IC50 [3]: 9 µM
IC50 [4]: > 500 µM
SMILES: CCCCCCCC/C=C\CCCCCCCC(=O)OC1C(C)OC(OCC2OC(Oc3c(-c4ccc(O)c(O)c4)oc4cc(O)cc(O)c4c3=O)C(O)C(O)C2O)C(O)C1O (stereo not given) [Rutin oleate]

SMILES: CCCCCCCCCCCCCC(=O)OC1C(C)OC(OCC2OC(Oc3c(-c4ccc(O)c(O)c4)oc4cc(O)cc(O)c4c3=O)C(O)C(O)C2O)C(O)C1O (stereo not given) [Rutin myristate]
IC50 [1]: 15 µM
IC50 [2]: 130 µM
IC50 [3]: 10 µM
IC50 [4]: > 500 µM

SMILES: O=c1ccc2cc(OC3OC(CO)C(O)C(O)C3O)c(O)cc2o1 (stereo not given) [Esculin]
IC50 [1]: 25 µM
IC50 [2]: 150 µM
IC50 [3]: 250 µM
IC50 [4]: 100 µM

SMILES: CCCCCCCCCCCCCCCC(=O)OCC1OC(Oc2cc3ccc(=O)oc3cc2O)C(O)C(O)C1O (stereo not given) [Esculin palmitate]
IC50 [1]: 100 µM
IC50 [2]: 210 µM
IC50 [3]: 54 µM
IC50 [4]: 30 µM

SMILES: CCCCCCCCCCCC(=O)OCC1OC(Oc2cc(O)cc(O)c2C(=O)CCc2ccc(O)cc2)C(O)C(O)C1O (stereo not given) [Phloridzin laurate]
IC50 [1]: 9 µM
IC50 [2]: 55 µM
IC50 [3]: 70 µM
IC50 [4]: > 500 µM

SMILES: CCCCCCCCCCCCCC(=O)OCC1OC(Oc2cc3ccc(=O)oc3cc2O)C(O)C(O)C1O (stereo not given) [Esculin myristate]
IC50 [1]: 100 µM
IC50 [2]: 120 µM
IC50 [3]: 54 µM
IC50 [4]: 25 µM

SMILES: O=C(CCc1ccc(O)cc1)c1c(O)cc(O)cc1OC1OC(CO)C(O)C(O)C1O (stereo not given) [Phloridzin]
IC50 [1]: 80 µM
IC50 [2]: 90 µM
IC50 [3]: 320 µM
IC50 [4]: 100 µM

SMILES: CCCC(=O)OC1C(C)OC(OCC2OC(Oc3c(-c4ccc(O)c(O)c4)oc4cc(O)cc(O)c4c3=O)C(O)C(O)C2O)C(O)C1O (stereo not given) [Rutin butyrate]
IC50 [1]: 8 µM
IC50 [2]: > 500 µM
IC50 [3]: 22 µM
IC50 [4]: > 500 µM

IC50 [1]: 15 µM
IC50 [2]: 40 µM
IC50 [3]: 8 µM
IC50 [4]: > 500 µM
SMILES: CCCCCCCCCCCCCCCCCC(=O)OC1C(C)OC(OCC2OC(Oc3c(-c4ccc(O)c(O)c4)oc4cc(O)cc(O)c4c3=O)C(O)C(O)C2O)C(O)C1O (stereo not given) [Rutin stearate]

SMILES: CCCCCCCCCCCC(=O)OCC1OC(Oc2cc3ccc(=O)oc3cc2O)C(O)C(O)C1O (stereo not given) [Esculin laurate]
IC50 [1]: 100 µM
IC50 [2]: 350 µM
IC50 [3]: 60 µM
IC50 [4]: 20 µM

IC50 [1]: 15 µM
IC50 [2]: 40 µM
IC50 [3]: 3 µM
IC50 [4]: > 500 µM
SMILES: CCCCCCCCCCCCCCCC(=O)OC1C(C)OC(OCC2OC(Oc3c(-c4ccc(O)c(O)c4)oc4cc(O)cc(O)c4c3=O)C(O)C(O)C2O)C(O)C1O (stereo not given) [Rutin palmitate]

SMILES: N=C(N)Nc1ccc(C(=O)O)cc1 [4-Guanidinobenzoate]
IC50 [1]: 20 µM
IC50 [2]: 450 µM
IC50 [3]: 400 µM
IC50 [4]: 500 µM

SMILES: CCCCCC(=O)OC1C(C)OC(OCC2OC(Oc3c(-c4ccc(O)c(O)c4)oc4cc(O)cc(O)c4c3=O)C(O)C(O)C2O)C(O)C1O (stereo not given) [Rutin caproate]
IC50 [1]: 14 µM and 20 µM
IC50 [2]: > 500 µM
IC50 [3]: 32 µM
IC50 [4]: > 500 µM

SMILES: CCCCCCCC(=O)OC1C(C)OC(OCC2OC(Oc3c(-c4ccc(O)c(O)c4)oc4cc(O)cc(O)c4c3=O)C(O)C(O)C2O)C(O)C1O (stereo not given) [Rutin caprylate]
IC50 [1]: 32 µM
IC50 [2]: > 500 µM
IC50 [3]: 25 µM
IC50 [4]: > 500 µM

SMILES: CCCCCCCCCCCCCCCCCC(=O)OCC1OC(Oc2cc3ccc(=O)oc3cc2O)C(O)C(O)C1O (stereo not given) [Esculin stearate]
IC50 [1]: 89 µM
IC50 [2]: 50 µM
IC50 [3]: 52 µM
IC50 [4]: 60 µM

SMILES: CC1OC(OCC2OC(Oc3c(-c4ccc(O)c(O)c4)oc4cc(O)cc(O)c4c3=O)C(O)C(O)C2O)C(O)C(O)C1O (stereo not given) [Rutin]
IC50 [1]: 6 µM
IC50 [2]: 40 µM
IC50 [3]: 25 µM
IC50 [4]: 100 µM

SMILES: CCCCCCCCCCCCCCCCCC(=O)OCC1OC(Oc2cc(O)cc(O)c2C(=O)CCc2ccc(O)cc2)C(O)C(O)C1O (stereo not given) [Phloridzin stearate]
IC50 [1]: 13 µM
IC50 [2]: 215 µM
IC50 [3]: 65 µM
IC50 [4]: > 500 µM

SMILES: CCCCCCCCCCCCCC(=O)OCC1OC(Oc2cc(O)cc(O)c2C(=O)CCc2ccc(O)cc2)C(O)C(O)C1O (stereo not given) [Phloridzin myristate]
IC50 [1]: 33 µM
IC50 [2]: 65 µM
IC50 [3]: 75 µM
IC50 [4]: > 500 µM

SMILES: O=c1c(O)c(-c2ccc(O)c(O)c2)oc2cc(O)cc(O)c12 [2-(3,4-dihydroxyphenyl)-3,5,7-trihydroxy-chromone;hydrate]
IC50 [1]: 20 µM

SMILES: CCCCCCCCCCCCCCCC(=O)OCC1OC(Oc2cc(O)cc(O)c2C(=O)CCc2ccc(O)cc2)C(O)C(O)C1O (stereo not given) [Phloridzin palmitate]
IC50 [1]: 18 µM
IC50 [2]: 60 µM
IC50 [3]: 75 µM
IC50 [4]: > 500 µM

SMILES: CCCCCCCCCCCC(=O)OC1C(C)OC(OCC2OC(Oc3c(-c4ccc(O)c(O)c4)oc4cc(O)cc(O)c4c3=O)C(O)C(O)C2O)C(O)C1O (stereo not given) [Rutin laurate]
IC50 [1]: 50 µM
IC50 [2]: 90 µM
IC50 [3]: 14 µM
IC50 [4]: > 500 µM

IC50 [1]: 20 µM
IC50 [2]: 50 µM
IC50 [3]: 7 µM
IC50 [4]: > 500 µM
SMILES: CC/C=C\C/C=C\C/C=C\CCCCCCCC(=O)OC1C(C)OC(OCC2OC(Oc3c(-c4ccc(O)c(O)c4)oc4cc(O)cc(O)c4c3=O)C(O)C(O)C2O)C(O)C1O (stereo not given) [Rutin linolenate]
